Data set [1] concerns HeLa cells (Cervical Cancer). In words: HeLa cells (Cervical Cancer) MTT assay. It is filed as cell-based. Conditions: Homo sapiens, HeLa, 48 h, ± SD from three independent experiments, NA: did not show anticancer activity at 30 µM. The procedure: Cytotoxicity against BJ Human fibroblast cells, and anti-cancer activity against PC3, HeLa and MCF-7 cancer cell lines were evaluated by following the procedure as described in the literature (Supplementary Materials). […]
(§1) of positive control – mean of O.D of negative control)*100).
(§2) The results (% inhibition) were processed by using Soft- Max Pro software (Molecular Device, USA).
Following concentrations were used to calculate (in case) of IC50:
(§3) Standard drug used in the MTT assay was doxorubicin. […]
C. HeLa cells (Cervical Cancer) assay
Cytotoxic activity of compounds was evaluated in 96-well flat-bottomed micro plates by using the standard MTT (3-[4, 5-dimethylthiazole-2-yl]-2, 5-diphenyl-tetrazolium bromide) colorimetric assay40.
For this purpose, HeLa cells (Cervical Cancer) were cultured in Minimum Essential Medium Eagle, supplemented with 5% of fetal bovine serum (FBS) , 100 IU/ml of penicillin and 100 µg/ml of streptomycin in 75 cm2 flasks, and kept in 5% CO2 incubator at 37 °C. Exponentially growing cells were harvested, counted with haemocytometer and diluted with a particular medium. Cell culture with the concentration of 6x10^4 cells/ml was prepared and introduced (100 µL/well) into 96 -well plates. After overnight incubation, medium was removed and 200 µL of fresh medium was added with different concentrations of compounds (1-30µM). After 48 hrs, 200 µL MTT (0.5 mg/ml) was added to each well and incubated further for 4 hrs. Subsequently, 100µL of DMSO was added to each well. The extent of MTT reduction to formazan within cells was calculated by measuring the absorbance at 570 nm, using a micro plate reader (Spectra Max plus, Molecular Devices, CA, USA). The cytotoxicity was recorded as concentration causing 50% growth inhibition (IC 50) for HeLa. The percent inhibition was calculated by using the following formula: […]
The results (% inhibition) were processed by using Soft - Max Pro software (Molecular Device, USA).
(§4) 1. Mosmann T. Rapid colorimetric assay for cellular growth and survival: application to proliferation and cytotoxicity assays. J Immunol Meth 1983, 65, 55–63. […]
In general terms: Formazan colour is commonly taken as a measure of viable cells.

A further data set relates to Human fibroblast BJ. In words: Cytotoxicity MTT assay, BJ human fibroblast cells. It is filed as cell-based. Conditions: 48 hrs, ± SD from three independent experiments, NA: did not show activity at 30 µM. As to the method: (§5) Cytotoxicity against BJ Human fibroblast cells, and anti-cancer activity against PC3, HeLa and MCF-7 cancer cell lines were evaluated by following the procedure as described in the literature (Supplementary Materials).
The Biological Activity Assays Protocols […]
of positive control – mean of O.D of negative control)*100). […]
as §3
B. Cytotoxicity assay Protocol (BJ Human fibroblast cells) […]
standard MTT (3-[4, 5-dimethylthiazole-2-yl]-2, 5-diphenyl-tetrazolium bromide) colorimetric assay (Price & J. McMillan1, 1990). For this purpose, BJ Human fibroblast cells were cultured in Dulbecco’s Modified Eagle Medium, supplemented with 10% of fetal bovine serum (FBS), 100 IU/ml of penicillin and 100 µg/ml of streptomycin and 2 mM L‐glutamine in 75 cm2 flasks, and kept in 5% CO2 incubator at 37 °C (Mannerström, Toimela, Sarkanen & Heinonen, 2017).
Exponentially growing cells were harvested, counted with haemocytometer and diluted with a particular medium. Cell culture with the concentration of 6x10^4cells/ml was prepared and introduced (100 µL/well) into 96-well plates. After overnight incubation, medium was removed and 200 µL of fresh medium was added with different concentrations of compounds (1 -30µM). After 48 hrs, 200 µL MTT (0.5 mg/ml) was added to each well and incubated further for 3 hrs.
Subsequently, 100µL of DMSO was added to each well. The extent of MTT reduction to formazan within cells was calculated by measuring the absorbance at 550 nm, using a micro plate reader (Spectra Max plus, Molecular Devices, CA, USA). The cytotoxicity was recorded as concentra tion causing 50% growth inhibition (IC50) for BJ cells. The percent inhibition was calculated by using the following […]
Following concentrations were used to calculate (in case) of IC50: […]

The test system of data set [2] is PC3 cells (Prostate Cancer). In words: PC3 cells (Prostate Cancer) MTT assay. In kind it is cell-based. Conditions: for IC50: MTT assay, 48 hrs, ± SD from three independent experiments, NA: did not show anticancer activity at 30 µM; for anticancer activity against PC3 prostate cancer cell line (in words): in comparison to doxorubicin. As to the method: as §5
The Biological Activity Assays Protocols
A. PC3 cells (Prostate Cancer) assay […]
For this purpose, PC3 cells (Prostate Cancer) were cultured in Dulbecco’s Modified Eagle Medium, supplemented with 5% of fetal bovine serum (FBS), 100 IU/ml of penicillin and 100 µg/ml of streptomycin in 75 cm2 flasks, and kept in 5% CO2 incubator at 37 °C. Exponentially growing cells were harvested, counted with haemocytometer and diluted with a particular medium. Cell culture with the concentration of 1x10^5 cells/ml was prepared and introduced (100 µL/well) into 96-well plates. After overnight incubation, medium was removed and 200 µL of fresh medium was added with different concentrations of compounds (1-30µM). After 48 hrs, 200 µL MTT (0.5 mg/ml) was added to each well and incubated further for 4 hrs. Subsequently, 100µL of DMSO was added to each well. The extent of MTT reduction to formazan within cells was calculated by measuring the absorbance at 570 nm, using a micro plate reader (Spectra Max plus, Molecular Devices, CA, USA). The cytotoxicity was recorded as concentration causing 50% growth inhibition (IC50) for PC3 cells. The percent inhibition was calculated by using the following formula: […]
as §1, §2
Standard drug used in the MTT assay was doxorubicin.
as §4

`O=C(CC(c1cc2ccccc2o1)c1c[nH]c2ccccc12)c1ccc(Br)cc1` (centres unmarked) [Compound 3d, 3-(Benzofuran-2-yl)-1-(4-bromophenyl)-3-(1H-indol-3-yl)propan-1-one]: the melting point was 108 to 109 °C. The compound also registered an IC50 in data set [1] of 12.6 ± 0.4 µM. This compound displayed an IC50 in the data set on Human fibroblast BJ of over 30 µM. The compound further displayed an IC50 in data set [2] (Homo sapiens, PC-3, 48 h) of 26.3 ± 0.8 µM.
For `O=C(CC(c1cc2ccccc2o1)c1c[nH]c2cc(F)ccc12)c1ccc(Br)cc1` (centres unmarked) [Compound 3e, 3-(Benzofuran-2-yl)-1-(4-bromophenyl)-3-(6-fluoro-1H-indol-3-yl)propan-1-one], in that order: 123 to 124 °C, 13.6 ± 0.4 µM, over 30 µM and 7.8 ± 0.4 µM.
The compound `O=C(CC(c1cc2ccccc2o1)c1c[nH]c2cc(F)ccc12)c1ccc(Cl)cc1` (centres unmarked) [Compound 3g, 3-(Benzofuran-2-yl)-1-(4-chlorophenyl)-3-(6-fluoro-1H-indol-3-yl)propan-1-one] came in with a melting point of 112 to 113 °C. Further, 14.7 ± 1.1 µM corresponded to half-maximal inhibition in data set [1] (IC50). In addition, in the data set with Human fibroblast BJ, the half-maximal inhibitory concentration (IC50) was over 30 µM. In data set [2] (Homo sapiens, PC-3, 48 h), the half-inhibitory concentration (IC50) was determined as 22 ± 1.3 µM. In data set [2], this compound yielded a concentration for half-maximal inhibition (IC50) of 20 ± 1.3 µM.
`O=C(CC(c1cc2ccccc2s1)c1c[nH]c2ccccc12)c1ccc(Br)cc1` (centres unmarked) [Compound 3h, 3-(Benzo[b]thiophen-2-yl)-1-(4-bromophenyl)-3-(1H-indol-3-yl)propan-1-one] gave a melting point of 121 to 122 °C. In the data set with Human fibroblast BJ, this compound came in with an IC50 of over 30 µM. The IC50 in data set [2] (Homo sapiens, PC-3, 48 h) is 29.7 ± 0.4 µM.
Regarding `O=C(CC(c1cc2ccccc2o1)c1c[nH]c2cc(F)ccc12)c1ccccc1[N+](=O)[O-]` (centres unmarked) [Compound 3i, 3-(Benzofuran-2-yl)-3-(6-fluoro-1H-indol-3-yl)-1-(2-nitrophenyl)propan-1-one], the melting point was in the range of 139 to 140 °C. In data set [1], this compound came in with a half-maximal inhibitory concentration (IC50) of 15.2 ± 0.6 µM. Further, the “anticancer activity against PC3 prostate cancer cell line (in words)” value in data set [2] is on record as “complete loss of anticancer activity”.
The compound `O=C(CC(c1cc2ccccc2o1)c1c[nH]c2ccc(Br)cc12)c1ccccc1[N+](=O)[O-]` (centres unmarked) [Compound 3j, 3-(Benzofuran-2-yl)-3-(5-bromo-1H-indol-3-yl)-1-(2-nitrophenyl)propan-1-one] came in with a melting point of 173 to 174 °C. The compound further came in with an IC50 in data set [1] of 17.3 ± 0.7 µM. The compound further returned a half-inhibitory concentration (IC50) in data set [2] (Homo sapiens, PC-3, 48 h) of 16 ± 0.1 µM.
In turn, `O=C(CC(c1cc2ccccc2o1)c1c[nH]c2ccccc12)c1ccccc1[N+](=O)[O-]` (centres unmarked) [Compound 3k, 3-(Benzofuran-2-yl)-3-(1H-indol-3-yl)-1-(2-nitrophenyl)propan-1-one] returned a melting point of 154 to 155 °C. In data set [1], this compound yielded a half-inhibitory concentration (IC50) of 14.9 ± 0.6 µM.
In the case of `COc1cccc(C(=O)CC(c2cc3ccccc3o2)c2c[nH]c3ccccc23)c1` (centres unmarked) [Compound 3l, 3-(Benzofuran-2-yl)-3-(1H-indol-3-yl)-1-(3-methoxyphenyl)propan-1-one], the melting point was 162 to 163 °C. Besides, in data set [1], inhibition was half-maximal at 11.1 ± 0.6 µM (IC50). Moreover, in the data set with Human fibroblast BJ, the IC50 is over 30 µM. Further, the half-inhibitory concentration (IC50) in data set [2] (Homo sapiens, PC-3, 48 h) was determined as 16.3 ± 1.6 µM.
Compound `O=C(CC(c1cc2ccccc2s1)c1c[nH]c2ccccc12)c1ccccc1` (centres unmarked) [Compound 3n, 3-(Benzo[b]thiophen-2-yl)-3-(1H-indol-3-yl)-1-phenylpropan-1-one] returned a melting point of 159 to 160 °C. The compound also had an IC50 in data set [1] of 12.4 ± 0.2 µM. The IC50 in the data set on Human fibroblast BJ is over 50 µM. The compound further returned an IC50 in data set [2] (Homo sapiens, PC-3, 48 h) of 20.4 ± 0.4 µM.
For the compound `O=C(CC(c1cc2ccccc2s1)c1c[nH]c2ccccc12)c1ccc(Cl)cc1` (centres unmarked) [Compound 3o, 3-(Benzo[b]thiophen-2-yl)-1-(4-chlorophenyl)-3-(1H-indol-3-yl)propan-1-one], the melting point was in the range of 150 to 151 °C. The 50% inhibitory concentration (IC50) in data set [1] is 13.8 ± 0.3 µM. For the same compound, the concentration for half-maximal inhibition (IC50) in the data set on Human fibroblast BJ was over 50 µM. Besides, the midpoint of inhibition in data set [2] (Homo sapiens, PC-3, 48 h), the IC50, lay at 29.7 ± 0.1 µM.
Take `O=C(CC(c1cc2ccccc2s1)c1c[nH]c2ccccc12)c1ccc(F)cc1` (centres unmarked) [Compound 3p, 3-(Benzo[b]thiophen-2-yl)-1-(4-fluorophenyl)-3-(1H-indol-3-yl)propan-1-one]: the IC50 in data set [1] is 12.7 ± 0.1 µM; with Human fibroblast BJ it was over 50 µM; in data set [2] (Homo sapiens, PC-3, 48 h), 27.6 ± 0.1 µM.
`O=C(CC(c1cc2ccccc2s1)c1c[nH]c2ccccc12)c1ccc(C(F)(F)F)cc1` (centres unmarked) [Compound 3q, 3-(Benzo[b]thiophen-2-yl)-3-(1H-indol-3-yl)-1-(4-(trifluoromethyl)phenyl)propan-1-one] registered a melting point of 165 to 166 °C. The same compound yielded an IC50 in data set [1] of 18.8 ± 0.2 µM. In addition, the IC50 in the data set on Human fibroblast BJ is over 50 µM. Further, the 50% inhibitory concentration (IC50) in data set [2] (Homo sapiens, PC-3, 48 h) stood at 18 ± 0.3 µM.
With `COc1ccccc1C(=O)CC(c1cc2ccccc2o1)c1c[nH]c2ccccc12` (centres unmarked) [Compound 3r, 3-(Benzofuran-2-yl)-3-(1H-indol-3-yl)-1-(2-methoxyphenyl)propan-1-one], the melting point is 67 to 68 °C. The same compound gave a 50% inhibitory concentration (IC50) in data set [1] of 12.4 ± 0.2 µM. Half-maximal inhibition in data set [2] (Homo sapiens, PC-3, 48 h) (IC50) was put at 20.4 ± 0.4 µM. Moreover, the “anticancer activity against PC3 prostate cancer cell line (in words)” value in data set [2] was “inactive”.

One may read the IC50 as the concentration needed to halve the response being measured. Low readings indicate greater potency in that assay, high ones weaker potency in that assay. The term melting point denotes the temperature of the solid-liquid transition.

These data come from article PMC8070033, “Bimetallic Iron–Palladium Catalyst System as a Lewis-Acid for the Synthesis of Novel Pharmacophores Based Indole Scaffold as Anticancer Agents” (Molecules, 2021).
